Experimental data reported in US10034886B2, “GLP-1 receptor modulators” (Celgene International II SÀRL, priority 2014, dated 2018).
Where two headings read alike, the source gives them in different places.

Target: T1, GLP-1R (Homo sapiens, UniProt P43220)
T1 construct: host or cells: GLP-1R CRE-bla CHO-K1 cells
Assay: EC20 GLP-1(9-36) PAM cAMP assay: dose response of compound in the presence of fixed concentration of GLP-1(9-36)
Format: cell-based
Conditions: GLP-1R CRE-bla CHO-K1 cells, read-out: EC20 GLP-1(9-36) PAM EC50
In short: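 GLP-1R CRE-bla CHO-K1 cells treated 30 min at 37 °C with 12-point compound dose response plus fixed EC20 GLP-1(9-36), with IBMX, in HBSS/HEPES/0.1% BSA pH 7.4. Total cAMP measured by luminescent detection against standard curve; EC50 and Emax from non-linear regression.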

[1] = dose response of compound in presence of fixed concentration of GLP-1(9-36)
[2] = compound dose response with fixed concentration of GLP-1(9-36)

T1 sequence (P43220 24-463): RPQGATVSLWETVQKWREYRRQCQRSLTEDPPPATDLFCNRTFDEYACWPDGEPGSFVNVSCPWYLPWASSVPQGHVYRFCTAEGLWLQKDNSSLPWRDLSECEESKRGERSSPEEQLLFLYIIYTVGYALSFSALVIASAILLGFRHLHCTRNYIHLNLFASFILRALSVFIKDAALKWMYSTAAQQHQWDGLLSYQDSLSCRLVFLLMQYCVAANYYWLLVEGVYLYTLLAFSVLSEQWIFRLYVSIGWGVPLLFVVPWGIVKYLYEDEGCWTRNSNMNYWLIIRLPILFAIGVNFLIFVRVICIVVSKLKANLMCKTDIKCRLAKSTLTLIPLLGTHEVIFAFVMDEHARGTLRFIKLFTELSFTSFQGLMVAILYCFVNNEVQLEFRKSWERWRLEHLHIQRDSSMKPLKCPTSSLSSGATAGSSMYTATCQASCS
T1 sequence (P01275 100-127 partner limits assumed): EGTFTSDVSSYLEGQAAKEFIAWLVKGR

| SMILES | EC50 [1] [µM] | EC50 [2] [µM] |
| --- | --- | --- |
| CCCCCCCOc1ccc(-c2cnc(-c3ccc(C[C@H](NC(=O)c4ccc(C(C)(C)C)cc4)C(=O)N4CCC4C(=O)O)cc3)nc2)cc1 (some centres unmarked) [Compound 565] | 0.8 to 2.5 | – |
| CCCCCCCOc1ccc(-c2cnc(-c3ccc(C[C@H](NC(=O)c4ccc(C(C)(C)C)s4)C(=O)N[C@@H](CCC)C(=O)O)cc3)nc2)cc1 [Compound 403] | 0.8 to 2.5 | – |
| CC(C)(C)c1ccc(C(=O)N[C@@H](Cc2ccc(-c3ncc(-c4ccc(-c5ccccc5)cc4)cn3)cc2)C(=O)N2CC(C(=O)O)C2)s1 [Compound 1090] | < 0.8 | – |
| CC(C)(C)c1ccc(C(=O)N[C@@H](Cc2ccc(-c3ncc(-c4ccc(-c5ccccc5)c(F)c4)cn3)cc2)C(=O)O)s1 [Compound 1351] | – | 2.5 to 5 |
| CCCCCCCOc1ccc(-c2cnc(-c3ccc(C[C@H](NC(=O)c4ccc(C(C)(C)C)cc4)C(=O)N4CCC(C(=O)O)CC4)cc3)nc2)cc1 [Compound 578] | 2.5 to 5 | – |
| CCCCCCCOc1ccc(-c2cnc(-c3ccc(C[C@H](NC(=O)c4ccc(C(C)(C)C)s4)C(=O)N4CC(C(=O)O)C4)cc3)nc2)cc1C [Compound 776] | < 0.8 | – |
| CCCCCCCOc1ccc(-c2cnc(-c3ccc(C[C@H](NC(=O)c4ccc(C(C)(C)C)s4)C(=O)N4CCC[C@H]4C(=O)NS(=O)(=O)CC(=O)OC)cc3)nc2)cc1 [Compound 496] | < 0.8 | – |
| CCCCCCCOc1ccc(-c2cnc(-c3ccc(CC(NC(=O)c4ccc(C(C)(C)C)s4)C(=O)N[C@H](C(=O)O)[C@@H](C)CC)cc3)nc2)cc1 (some centres unmarked) [Compound 414] | < 0.8 | – |
| Cc1cc(-c2cnc(-c3ccc(C[C@H](NC(=O)c4ccc(C(C)(C)C)s4)C(=O)N4CC(C(=O)O)C4)cc3)nc2)ccc1OC(C)C [Compound 1093] | < 0.8 | – |
| CCCCCCCOc1ccc(-c2cnc(-c3ccc(C[C@H](NC(=O)c4ccc(C(C)(C)C)s4)C(=O)N4CCC(C)(N)C4)cc3)nc2)cc1 (some centres unmarked) [Compound 988] | 5 to 10 | – |
| CC(C)COc1ccc(-c2cnc(-c3ccc(C[C@H](NC(=O)c4ccc(C(C)(C)C)cc4)C(=O)NCCC(=O)O)cc3)nc2)cc1 [Compound 685] | 2.5 to 5 | – |
| CCCCc1ccc(C2CCCN(c3cnc(-c4ccc(C[C@H](NC(=O)c5ccc(C(C)(C)C)s5)C(=O)N5CC(C(=O)O)C5)cc4)nc3)CC2)cc1 (some centres unmarked) [Compound 1508] | – | < 0.8 |
| CCCCCCCCOc1ccc(-c2cnc(-c3ccc(C[C@H](NC(=O)c4ccc(C(C)(C)C)cc4)C(=O)NCCC(=O)O)cc3)nc2)cc1 [Compound 712] | 0.8 to 2.5 | – |
| CCCCCCCOc1ccc(-c2cnc(-c3ccc(C[C@H](NC(=O)c4ccc(OC(C)C)cc4)C(=O)N4CC[C@H](C(=O)O)C4)cc3)nc2)cc1 [Compound 849] | 2.5 to 5 | – |
| CC(C)CCCOc1ccc(-c2cnc(-c3ccc(C[C@H](NC(=O)c4ccc(C(C)(C)C)cc4)C(=O)NCCC(=O)O)cc3)nc2)cc1 [Compound 458] | 0.8 to 2.5 | – |
| CC(C)(C)c1ccc(C(=O)N[C@@H](Cc2ccc(-c3ncc(-c4ccc(-c5ccccc5F)cc4F)cn3)cc2)C(=O)N2CC(C(=O)O)C2)s1 [Compound 1194] | < 0.8 | – |
| CCCCCCCOc1ccc(-c2cnc(-c3ccc(C[C@H](NC(=O)c4ccc(C(C)(C)C)s4)C(=O)N[C@@H](C(=O)O)[C@@H](O)c4ccccc4)cc3)nc2)cc1 [Compound 667, (2R,3S)-2-((S)-2-(5-(tert-butyl)thiophene-2-carboxamido)-3-(4-(5-(4-(heptyloxy)phenyl)pyrimidin-2-yl)phenyl)propanamido)-3-hydroxy-3-phenylpropanoic acid] | 0.8 to 2.5 | – |
| CC1(C)CCC(C2CCN(c3cnc(-c4ccc(C[C@H](NC(=O)c5ccc(C(C)(C)C)s5)C(=O)N5CC(C(=O)O)C5)cc4)nc3)CC2)CC1 [Compound 1424] | – | < 0.8 |
| CCCCCCCOc1ccc(-c2cnc(-c3ccc(CC(NC(=O)c4ccc(C(C)(C)C)s4)C(=O)N[C@@H](CSSC[C@H](N)C(=O)O)C(=O)O)cc3)nc2)cc1 (some centres unmarked) [Compound 426] | 0.8 to 2.5 | – |
| CC[C@H]1CC[C@H](c2ccc(-c3cnc(-c4ccc(C[C@H](NC(=O)c5cnc(C(C)(C)C)nc5)C(=O)N5CC(C(=O)O)C5)cc4)nc3)cc2)CC1 [Compound 1164] | < 0.8 | – |
| CCCOc1ccc(-c2cnc(-c3ccc(C[C@H](NC(=O)c4ccc(C(C)(C)C)s4)C(=O)N4CC[C@H](C(=O)O)C4)cc3)nc2)cc1 [Compound 761] | 2.5 to 5 | – |
| CC[C@H]1CC[C@H](c2ccc(-c3ccc(-c4ccc(C[C@H](NC(=O)c5ccc(C(C)(C)C)s5)C(=O)O)cc4)cn3)cc2)CC1 [Compound 1335] | – | 2.5 to 5 |
| CCCCCCCOc1ccc(-c2cnc(-c3ccc(C[C@H](NC(=O)c4ccc(C(C)(C)C)cc4)C(=O)NCC(=O)NCC(=O)O)cc3)nc2)cc1 [Compound 444] | < 0.8 | – |
| CCCCCCCOc1ccc2nc(-c3ccc(C[C@H](NC(=O)c4ccc(C(C)(C)C)cc4)C(=O)N4CC[C@H](C(=O)O)C4)cc3)ncc2c1 [Compound 810] | 5 to 10 | – |
| CCCCCCCOc1ccc(-c2cnc(-c3ccc(C[C@H](NC(=O)c4ccc(CC)cc4)C(=O)NC(C(=O)O)C(O)c4ccccc4)cc3)nc2)cc1 (some centres unmarked) [Compound 947] | 0.8 to 2.5 | – |

| SMILES | EC50 [1] [µM] | EC50 [2] [µM] |
| --- | --- | --- |
| CCCCCCCOc1ccc(-c2cnc(-c3ccc(C[C@H](NC(=O)Cc4ccc(OCCCC)cc4)C(=O)N4CC(C(=O)O)C4)cc3)nc2)cc1 [Compound 1102] | 0.8 to 2.5 | – |
| CC[C@H]1CC[C@H](c2ccc(-c3cnc(-c4ccc(C[C@H](NC(=O)c5ccc(C(C)(C)C)s5)C(=O)N[C@@H](CC(N)=O)C(=O)O)cc4)nc3)cc2)CC1 [Compound 1325] | – | < 0.8 |
| CCCCCCCOc1ccc(-c2cnc(-c3ccc(C[C@H](NC(=O)c4ccc(C(C)(C)C)c(OC)c4)C(=O)N[C@H](C)C(=O)O)cc3)nc2)cc1 [Compound 837] | < 0.8 | – |
| CC(C)Cc1ccc(-c2ccc(-c3cnc(-c4ccc(C[C@H](NC(=O)c5ccc(C(C)(C)C)s5)C(=O)N5CC(C(=O)O)C5)cc4)nc3)c(F)c2)cc1 [Compound 1221] | – | < 0.8 |
| CCc1ccc(C2CCN(c3cnc(-c4ccc(C[C@H](NC(=O)c5ccc(C(C)(C)C)s5)C(=O)N5CC(C(=O)O)C5)cc4)nc3)CC2)cc1 [Compound 1474] | – | < 0.8 |
| CCCCCCOC1CN(c2cnc(-c3ccc(C[C@H](NC(=O)c4ccc(C(C)(C)C)s4)C(=O)N[C@H](C)C(=O)O)cc3)nc2)C1 [Compound 1273] | – | 5 to 10 |
| C[C@@H](NC(=O)[C@H](Cc1ccc(-c2ncc(-c3ccc(-c4ccc(C(F)(F)F)cc4)c(F)c3)cn2)cc1)NC(=O)c1ccc(C(C)(C)C)s1)C(=O)O [Compound 1140] | < 0.8 | – |
| C[C@@H](NC(=O)[C@H](Cc1ccc(-c2ncc(-c3ccc(-c4ccc(C(C)(C)C)cc4)cc3)cn2)cc1)NC(=O)c1ccc(C(C)(C)C)s1)C(=O)O [Compound 1312] | – | 0.8 to 2.5 |
| CC[C@H]1CC[C@H](c2ccc(-c3cnc(-c4ccc(C[C@H](NC(=O)c5cnc(C6CC6)nc5)C(=O)O)cc4)nc3)cc2)CC1 [Compound 1391] | – | < 0.8 |
| CCCCCCCOc1ccc(-c2cnc(-c3ccc(C[C@H](NC(=O)c4ccc(C(C)(C)C)cc4)C(=O)N[C@@H](CC(=O)O)C(=O)NC)cc3)nc2)cc1 [Compound 580] | < 0.8 | – |
| CC(C)(C)c1ccc(C(=O)N[C@@H](Cc2ccc(-c3ncc(-c4ccc(OC5CCCCC5)cc4)cn3)cc2)C(=O)N2CC(C(=O)O)C2)s1 [Compound 921] | 5 to 10 | – |
| C[C@@H](NC(=O)[C@H](Cc1ccc(-c2ncc(-c3ccc(N4CCCC4)cc3)cn2)cc1)NC(=O)c1ccc(C(C)(C)C)s1)C(=O)O [Compound 1300] | – | 0.8 to 2.5 |
| C[C@@H](NC(=O)[C@H](Cc1ccc(-c2ncc(-c3ccc(-c4ccccc4)cc3)cn2)cc1)NC(=O)c1ccc(C(C)(C)C)s1)C(=O)O [Compound 741] | 2.5 to 5 | – |
| CC(C)(C)c1ccc(C(=O)N[C@@H](Cc2ccc(-c3ncc(-c4ccc(OCCN5CCCCC5)cc4)cn3)cc2)C(=O)O)s1 [Compound 1353] | – | 5 to 10 |
| CCCc1ccc(-c2ccc(-c3cnc(-c4ccc(C[C@H](NC(=O)c5ccc(C(C)(C)C)s5)C(=O)O)cc4)nc3)c(F)c2)cc1 [Compound 1061] | 2.5 to 5 | – |
| CCCCCCCOc1ccc(-c2cnc(-c3ccc(C[C@H](NC(=O)c4ccc(C(C)(C)C)s4)C(=O)N4CC(F)(C(=O)O)C4)cc3)nc2)cc1 [Compound 878] | < 0.8 | – |
| CCCCCCCOc1ccc(-c2cnc(-c3ccc(C[C@H](NC(=O)c4ccc(C(C)(C)C)s4)C(=O)N[C@H](C(=O)O)[C@@H](O)c4ccccc4)cc3)nc2)cc1 [Compound 665] | 0.8 to 2.5 | – |
| C[C@@H](NC(=O)[C@H](Cc1ccc(-c2ncc(-c3ccc(C4CCC(C)(C)CC4)cc3)cn2)cc1)NC(=O)c1ccc(C(C)(C)C)s1)C(=O)O [Compound 1316] | – | < 0.8 |
| CCCCCCCOc1ccc(-c2cnc(-c3ccc(C[C@H](NC(=O)c4ccc(Cc5ccccc5)cc4)C(=O)N[C@H](C)C(=O)O)cc3)nc2)cc1 [Compound 825] | < 0.8 | – |
| CCC[C@H]1CC[C@H](C2CCN(c3cnc(-c4ccc(CC(NC(=O)c5ccc(C(C)(C)C)s5)C(=O)NS(=O)(=O)CCNC(=O)OC(C)(C)C)cc4)nc3)CC2)CC1 (some centres unmarked) [Compound 1548] | – | < 0.8 |
| CCCCCCCOc1ccc(-c2cnc(-c3ccc(C[C@H](NC(=O)c4ccc(C(C)(C)C)s4)C(=O)N[C@@H](Cc4cccnc4)C(=O)O)cc3)nc2)cc1 [Compound 616] | 0.8 to 2.5 | – |
| CCCCCOc1ccc(-c2cnc(-c3ccc(C[C@H](NC(=O)c4ccc(C(C)(C)C)s4)C(=O)NC(C(=O)O)C(O)c4ccccc4)cc3)nc2)cc1 (some centres unmarked) [Compound 925] | 2.5 to 5 | – |
| CCCCCCCOc1ccc(-c2cnc(-c3ccc(C[C@H](NC(=O)c4ccc(C(C)(C)C)s4)C(=O)NC(C(=O)O)C(O)c4ccc(Cl)c(Cl)c4)cc3)nc2)cc1 (some centres unmarked) [Compound 905] | 5 to 10 | – |
| CCC[C@H]1CC[C@H](C2CCN(c3cnc(-c4ccc(CC(NC(=O)c5ccc(C(C)(C)C)s5)C(=O)NS(=O)(=O)C(F)(F)F)cc4)nc3)CC2)CC1 (some centres unmarked) [Compound 1549] | – | < 0.8 |
| CCCCCCCOc1ccc(-c2cnc(-c3ccc(C[C@H](NC(=O)c4ccc5c(c4)OCCO5)C(=O)N[C@H](C)C(=O)O)cc3)nc2)cc1 [Compound 980] | 0.8 to 2.5 | – |
